{"source": "PubChem BioAssay (NCI)", "test_in_all_cases": "growth of human tumour cells (NCI), 384-well format", "key": {"[1]": {"test_system": "NCI-H522 lung"}, "[2]": {"test_system": "NCI-H226 lung"}, "[3]": {"test_system": "MOLT-4 leukemia"}, "[4]": {"test_system": "ACHN renal"}, "[5]": {"test_system": "NCI/ADR-RES ovarian"}, "[6]": {"test_system": "UACC-62 melanoma"}, "[7]": {"test_system": "CCRF-CEM leukemia"}, "[8]": {"test_system": "SNB-75 CNS"}, "[9]": {"test_system": "KM12 colon"}, "[10]": {"test_system": "COLO 205 colon"}, "[11]": {"test_system": "SF-539 CNS"}, "[12]": {"test_system": "OVCAR-8 ovarian"}, "[13]": {"test_system": "OVCAR-5 ovarian"}}, "note": "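The concentration for 50% growth inhibition is given as GI50. TGI is the concentration that stops growth completely.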", "data": [{"compound": "CC(C)(O)C1CCC(Nc2ccc3ncc(-c4cccc(C(F)(F)F)c4)n3n2)CC1", "note": "(stereo unspecified)", "values": [{"measurement": "GI50", "setting": "[1]", "value": 1030, "unit": "nM"}, {"measurement": "TGI", "setting": "[1]", "value": 2560, "unit": "nM"}, {"measurement": "GI50", "setting": "[2]", "value": 1000, "unit": "nM"}, {"measurement": "TGI", "setting": "[2]", "value": 2660, "unit": "nM"}, {"measurement": "GI50", "setting": "[3]", "value": 559, "unit": "nM"}, {"measurement": "TGI", "setting": "[3]", "value": 1860, "unit": "nM"}, {"measurement": "GI50", "setting": "[4]", "value": 1630, "unit": "nM"}, {"measurement": "TGI", "setting": "[4]", "value": 5010, "unit": "nM"}, {"measurement": "GI50", "setting": "[5]", "value": 1380, "unit": "nM"}, {"measurement": "TGI", "setting": "[5]", "value": 3300, "unit": "nM"}, {"measurement": "GI50", "setting": "[6]", "value": 1500, "unit": "nM"}, {"measurement": "TGI", "setting": "[6]", "value": 2840, "unit": "nM"}, {"measurement": "GI50", "setting": "[7]", "value": 367, "unit": "nM"}, {"measurement": "TGI", "setting": "[7]", "value": 1560, "unit": "nM"}, {"measurement": "GI50", "setting": "[8]", "value": 1450, "unit": "nM"}, {"measurement": "TGI", "setting": "[8]", "value": 4140, "unit": "nM"}, {"measurement": "GI50", "setting": "[9]", "value": 51, "unit": "nM"}, {"measurement": "TGI", "setting": "[9]", "value": 2130, "unit": "nM"}, {"measurement": "GI50", "setting": "[10]", "value": 2470, "unit": "nM"}, {"measurement": "TGI", "setting": "[10]", "value": 8700, "unit": "nM"}, {"measurement": "GI50", "setting": "[11]", "value": 1020, "unit": "nM"}, {"measurement": "TGI", "setting": "[11]", "value": 2330, "unit": "nM"}, {"measurement": "GI50", "setting": "[12]", "value": 1770, "unit": "nM"}, {"measurement": "TGI", "setting": "[12]", "value": 4710, "unit": "nM"}, {"measurement": "GI50", "setting": "[13]", "value": 1820, "unit": "nM"}, {"measurement": "TGI", "setting": "[13]", "value": 6510, "unit": "nM"}]}]}
